Results from patent US11174243B2, “Succinate forms and compositions of Bruton's tyrosine kinase inhibitors” (Sunesis Pharmaceuticals, Inc., priority 2016, dated 2021).
Values belong to the molecule of their own block, whether it stands above or below them.

Columns and labels:
CYP3A4 = target: T1, CYP3A4 (Homo sapiens, UniProt P08684); test: Phase 1a study Stage 3: drug-drug interaction with itraconazole (effect of CYP3A4 inhibition); format: in vivo; details: for Cmax / AUC(0-t) / AUC(0-inf) / Tmax: plasma, oral; for Cmax / AUC(0-t) / AUC(0-inf): arithmetic mean (CV %); for Tmax: median (min, max)
T1 construct: from tissue; host or cells: human subjects in vivo
Protocol: Stage 3 evaluated 12 subjects from Cohort 6 who had already received Compound 2 in Stage 2 of the study. Compound 2 at a dose of 25 mg was administered once in the fasted state on Day 1 and subjects were followed for safety, PK and PD evaluations. On Day 4, subjects then received itraconazole (a potent CYP3A4 inhibitor) that was administered at a dose of 200 mg twice daily on Days 4 through 9 in the fed state (except at the morning dose on Day 7). In the morning of Day 7, subjects received itraconazole at a dose of 200 mg followed shortly by administration of Compound 2 at a dose of 25 mg (with both drugs given in the fasted state). Subjects were then followed for safety, PK and PD evaluations on Days 7, 8, 9, and 10. PK results observed following administration of Compound 2 alone on Day 1 were compared with those observed in these same subjects after administration of Compound 2 with itraconazole on Day 7.
The effect of the strong CYP3A4 inhibitor, itraconazole, on the pharmacokinetics of an oral dose of 25 mg Compound 2 was evaluated in 12 subjects (Table 7a). […].

TEC = target: T2, TEC (Homo sapiens, UniProt P42680); test: In vitro kinase assay, TEC
T2 sequence (P42680 1-631): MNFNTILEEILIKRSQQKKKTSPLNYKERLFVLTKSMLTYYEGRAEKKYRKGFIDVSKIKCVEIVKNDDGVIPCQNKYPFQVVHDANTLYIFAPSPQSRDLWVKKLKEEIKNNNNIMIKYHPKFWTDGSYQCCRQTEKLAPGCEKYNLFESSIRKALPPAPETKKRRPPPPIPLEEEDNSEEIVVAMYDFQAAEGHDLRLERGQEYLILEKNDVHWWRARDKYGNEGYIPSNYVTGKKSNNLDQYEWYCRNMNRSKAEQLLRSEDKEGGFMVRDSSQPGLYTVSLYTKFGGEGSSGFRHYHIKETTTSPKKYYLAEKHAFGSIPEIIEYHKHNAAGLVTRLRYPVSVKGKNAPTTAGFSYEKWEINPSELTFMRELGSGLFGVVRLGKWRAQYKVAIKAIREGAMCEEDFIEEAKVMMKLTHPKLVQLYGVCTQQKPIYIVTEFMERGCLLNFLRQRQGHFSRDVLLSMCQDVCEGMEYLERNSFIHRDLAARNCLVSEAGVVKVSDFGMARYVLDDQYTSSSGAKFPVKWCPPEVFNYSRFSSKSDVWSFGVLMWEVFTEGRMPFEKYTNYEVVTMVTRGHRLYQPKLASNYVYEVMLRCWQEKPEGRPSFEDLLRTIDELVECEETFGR

CD40 expression = test: CpG induced CD40 expression (flow cytometry); format: cell-based, human; details: 3.2 μM CpG stimulation, 1 μM
Protocol: Methods: Primary CLL B cells were isolated from the whole blood of consented patients by FICOLL density centrifugation and rosette-sep negative selection. Annexin V and propidium iodide flow cytometry was used to measure patient CLL cell viability and 7AAD was used to measure viability in stromal co-culture. CD40 and CD86 expression was evaluated via flow cytometry subsequent to sustained 3.2 μM CpG stimulation. BCR signaling in primary CLL cells was investigated by immunoblot succeeding 1 hour treatment and following 1 hour or 24 hours of incubation with Compound 1 in XLA cell lines. MTS values were read after 24 hours of drug incubation. ITK inhibition was investigated via immunoblot after stimulation with anti-CD3 and anti-CD28 and incubation with Compound 1 for 1 hour. Compound 1 was used at a concentration of 1 μM in preclinical studies unless otherwise noted.

BMX = target: T3, BMX (Homo sapiens, UniProt P51813); test: Kinase selectivity, BMX (Kd)
T3 sequence (P51813 1-675): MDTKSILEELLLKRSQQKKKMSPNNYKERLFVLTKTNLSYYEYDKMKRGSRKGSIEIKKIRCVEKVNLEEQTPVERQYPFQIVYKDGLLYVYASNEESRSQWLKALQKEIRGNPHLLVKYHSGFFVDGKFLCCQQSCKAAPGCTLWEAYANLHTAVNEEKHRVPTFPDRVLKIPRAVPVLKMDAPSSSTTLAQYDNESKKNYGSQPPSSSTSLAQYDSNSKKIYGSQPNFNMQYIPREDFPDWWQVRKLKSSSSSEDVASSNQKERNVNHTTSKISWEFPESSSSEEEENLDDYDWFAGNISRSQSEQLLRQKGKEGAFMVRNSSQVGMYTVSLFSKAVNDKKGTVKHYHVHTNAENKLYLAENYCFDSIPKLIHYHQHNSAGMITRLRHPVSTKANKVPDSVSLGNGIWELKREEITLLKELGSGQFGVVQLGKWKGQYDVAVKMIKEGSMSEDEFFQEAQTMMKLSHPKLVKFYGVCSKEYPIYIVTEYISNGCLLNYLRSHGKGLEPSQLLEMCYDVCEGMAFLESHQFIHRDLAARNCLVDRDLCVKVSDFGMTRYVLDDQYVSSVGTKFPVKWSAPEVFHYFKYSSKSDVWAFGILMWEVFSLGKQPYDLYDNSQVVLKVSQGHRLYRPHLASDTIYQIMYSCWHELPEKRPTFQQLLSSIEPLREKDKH

Single-dose PK in monkey = format: in vivo; details: male, cynomolgus monkey, plasma
Protocol: A series of single-dose PK studies were conducted in rat, dog, and monkey to investigate the plasma PK of Compound 2 following single oral and single intravenous (IV) administration of Compound 2.
The PK of Compound 2 was studied in the male cynomolgus monkey (n=3) following single IV administration of Compound 2 at 1 mg/kg and single oral administration at 5 mg/kg (DRN105-0042). Following each administration, serial blood samples were collected at 0.08, 0.25, 0.5, 1, 2, 4, 7, 16, and 24 hours postdose.

[1] = human, Compound 2 25 mg fasted + itraconazole
[2] = human, Compound 2 25 mg fasted, N = 12
[3] = 1 mg/kg, IV, dose 1, 70% PEG400/H2O, free base measured
[4] = 5 mg/kg, PO, dose 5, 0.1% CMC/0.2% Tween, free base measured

T1 sequence (P08684 whole entry): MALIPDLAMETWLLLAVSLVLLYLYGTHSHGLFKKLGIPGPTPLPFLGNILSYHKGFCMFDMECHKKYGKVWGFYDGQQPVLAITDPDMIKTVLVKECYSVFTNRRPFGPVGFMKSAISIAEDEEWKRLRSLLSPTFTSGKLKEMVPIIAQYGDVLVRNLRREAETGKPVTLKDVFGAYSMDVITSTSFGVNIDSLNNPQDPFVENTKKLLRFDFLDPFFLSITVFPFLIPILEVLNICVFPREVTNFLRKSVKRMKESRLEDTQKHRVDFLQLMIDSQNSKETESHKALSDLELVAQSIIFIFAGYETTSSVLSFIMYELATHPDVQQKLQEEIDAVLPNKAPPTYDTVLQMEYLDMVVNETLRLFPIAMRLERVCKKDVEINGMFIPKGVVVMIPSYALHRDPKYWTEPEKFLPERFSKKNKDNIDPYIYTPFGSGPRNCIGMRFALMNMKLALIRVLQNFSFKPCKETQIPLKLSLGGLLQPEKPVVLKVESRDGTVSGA

increase of plasma exposure (Cmax) with itraconazole (CYP3A4; 25 mg Compound 2 + itraconazole vs alone): about 2 fold | CYP3A4 substrate classification (CYP3A4; ≥5-fold increase in exposure in the presence of CYP enzyme inhibition): sensitive substrate for CYP3A4 | IC50 (TEC): 19 nM | Kd (BMX): ≥ 200 nM
Compound: NC(=O)[C@H]1CCN(c2ncnc(N)c2F)C[C@@H]1N1CCC[C@@H](Nc2cc(Cl)cc(C(F)(F)F)c2)C1=O [Compound 1, (3R,3′R,4′S)-1′-(6-amino-5-fluoropyrimidin-4-yl)-3-((3-chloro-5-(trifluoromethyl)phenyl)amino)-2-oxo-[1,3′-bipiperidine]-4′-carboxamide]
decrease of CpG induced CD40 expression (CD40 expression): 8.7%

CL/F (CYP3A4; human, in vivo, 25 mg): 6.34 (41.6) L/hr | Vd/F (CYP3A4; human, in vivo, 25 mg): 57.5 L | half-life (CYP3A4; human, in vivo, 25 mg): 6.9 h | Cmax (CYP3A4; human, Compound 2 25 mg fasted + itraconazole, N = 12): 1680 ng/mL | AUC(0-t) (CYP3A4; [1]): 28000 ng·h/mL | AUC(0-inf) (CYP3A4; human, Compound 2 25 mg fasted + itraconazole, N = 11): 32200 ng·h/mL | Tmax (CYP3A4; [1]): 1.5 h | Cmax (CYP3A4; [2]): 873 ng/mL | Tmax (CYP3A4; [2]): 1 h | AUC(0-inf) (CYP3A4; human, Compound 2 25 mg fasted): 4620 ng·h/mL | AUC(0-t) (CYP3A4; human, Compound 2 25 mg fasted): 4420 ng·h/mL | AUC(0-inf) (Single-dose PK in monkey; [3]): 1920 ng·h/mL | C0 (Single-dose PK in monkey; [3]): 1600 ng/mL | half-life (Single-dose PK in monkey; [3]): 1.9 h | AUC(0-inf) (Single-dose PK in monkey; [4]): 3220 ng·h/mL | Cmax (Single-dose PK in monkey; [4]): 1400 ng/mL | Tmax (Single-dose PK in monkey; [4]): 1.5 h | bioavailability (Single-dose PK in monkey; 5 mg/kg, PO, dose 5, 0.1% CMC/0.2% Tween, read-out: % F (oral bioavailability)): 33%
Compound: NC(=O)[C@H]1CCN(c2ncnc(N)c2F)C[C@@H]1N1CCC[C@@H](Nc2cc(Cl)cc(C(F)(F)F)c2)C1=O [Compound 2]
